In PubChem BioAssay (NCI):
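A five-concentration, 48-hour dose response in 96-well plates underlies each endpoint, interpolated linearly between surrounding concentrations. Abbreviation: GI50, concentration required for 50% inhibition of growth. TGI denotes the concentration required for complete inhibition of growth.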

Experiments:
Assay in all cases: DTP human tumour cell line panel, 48 h
786-0 renal = test system: 786-0 renal
A498 renal = test system: A498 renal
A549 NSCLC = test system: A549 NSCLC
ACHN renal = test system: ACHN renal
BT-549 breast = test system: BT-549 breast
CAKI-1 renal = test system: CAKI-1 renal
CCRF-CEM leukemia = test system: CCRF-CEM leukemia
COLO 205 colon = test system: COLO 205 colon
DU-145 prostate = test system: DU-145 prostate
EKVX NSCLC = test system: EKVX NSCLC
HCC-2998 colon = test system: HCC-2998 colon
HCT-116 colon = test system: HCT-116 colon
HCT-15 colon = test system: HCT-15 colon
HL-60(TB) leukemia = test system: HL-60(TB) leukemia
HOP-62 NSCLC = test system: HOP-62 NSCLC
HOP-92 NSCLC = test system: HOP-92 NSCLC
HS 578T breast = test system: HS 578T breast
HT29 colon = test system: HT29 colon
IGROV1 ovarian = test system: IGROV1 ovarian
K-562 leukemia = test system: K-562 leukemia
KM12 colon = test system: KM12 colon
LOX IMVI melanoma = test system: LOX IMVI melanoma
M14 melanoma = test system: M14 melanoma
MALME-3M melanoma = test system: MALME-3M melanoma
MCF7 breast = test system: MCF7 breast
MDA-MB-231 breast = test system: MDA-MB-231 breast
MDA-MB-435 = test system: MDA-MB-435
MOLT-4 leukemia = test system: MOLT-4 leukemia
NCI-H226 lung = test system: NCI-H226 lung
NCI-H23 lung = test system: NCI-H23 lung
NCI-H460 lung = test system: NCI-H460 lung
NCI-H522 lung = test system: NCI-H522 lung
NCI/ADR-RES ovarian = test system: NCI/ADR-RES ovarian
OVCAR-3 ovarian = test system: OVCAR-3 ovarian
OVCAR-4 ovarian = test system: OVCAR-4 ovarian
OVCAR-5 ovarian = test system: OVCAR-5 ovarian
OVCAR-8 ovarian = test system: OVCAR-8 ovarian
PC-3 prostate = test system: PC-3 prostate
RPMI-8226 leukemia = test system: RPMI-8226 leukemia
RXF 393 renal = test system: RXF 393 renal
SF-268 CNS = test system: SF-268 CNS
SF-295 CNS = test system: SF-295 CNS
SF-539 CNS = test system: SF-539 CNS
SK-MEL-2 melanoma = test system: SK-MEL-2 melanoma
SK-MEL-28 melanoma = test system: SK-MEL-28 melanoma
SK-MEL-5 melanoma = test system: SK-MEL-5 melanoma
SK-OV-3 ovarian = test system: SK-OV-3 ovarian
SN12C renal = test system: SN12C renal
SNB-19 CNS = test system: SNB-19 CNS
SNB-75 CNS = test system: SNB-75 CNS
SR leukemia = test system: SR leukemia
SW-620 colon = test system: SW-620 colon
T-47D breast = test system: T-47D breast
TK-10 renal = test system: TK-10 renal
U251 CNS = test system: U251 CNS
UACC-257 melanoma = test system: UACC-257 melanoma
UACC-62 melanoma = test system: UACC-62 melanoma
UO-31 renal = test system: UO-31 renal

Cn1cc(-c2csc(-c3c[nH]c4ccccc34)n2)c2cccnc21
GI50 (786-0 renal): 2660 nM
TGI (786-0 renal): > 91100 nM
GI50 (A498 renal): 688 nM
TGI (A498 renal): 46600 nM
GI50 (A549 NSCLC): 656 nM
TGI (A549 NSCLC): > 64400 nM
GI50 (ACHN renal): 970 nM
TGI (ACHN renal): > 100000 nM
GI50 (BT-549 breast): 1160 nM
TGI (BT-549 breast): 38700 nM
GI50 (CAKI-1 renal): 291 nM
TGI (CAKI-1 renal): > 37900 nM
GI50 (CCRF-CEM leukemia): 534 nM
TGI (CCRF-CEM leukemia): > 100000 nM
GI50 (COLO 205 colon): 431 nM
TGI (COLO 205 colon): 6980 nM
GI50 (DU-145 prostate): 1050 nM
TGI (DU-145 prostate): 34400 nM
GI50 (EKVX NSCLC): 636 nM
TGI (EKVX NSCLC): > 40500 nM
GI50 (HCC-2998 colon): 1270 nM
TGI (HCC-2998 colon): > 100000 nM
GI50 (HCT-116 colon): 363 nM
TGI (HCT-116 colon): > 100000 nM
GI50 (HCT-15 colon): 503 nM
TGI (HCT-15 colon): > 100000 nM
GI50 (HL-60(TB) leukemia): 343 nM
TGI (HL-60(TB) leukemia): > 100000 nM
GI50 (HOP-62 NSCLC): 718 nM
TGI (HOP-62 NSCLC): 27000 nM
GI50 (HOP-92 NSCLC): 915 nM
TGI (HOP-92 NSCLC): 14100 nM
GI50 (HS 578T breast): 5900 nM
TGI (HS 578T breast): > 100000 nM
GI50 (HT29 colon): 324 nM
TGI (HT29 colon): 1720 nM
GI50 (IGROV1 ovarian): 308 nM
TGI (IGROV1 ovarian): 22900 nM
GI50 (K-562 leukemia): 232 nM
TGI (K-562 leukemia): > 100000 nM
GI50 (KM12 colon): 413 nM
TGI (KM12 colon): 77200 nM
GI50 (LOX IMVI melanoma): 537 nM
TGI (LOX IMVI melanoma): > 100000 nM
GI50 (M14 melanoma): 356 nM
TGI (M14 melanoma): > 100000 nM
GI50 (MALME-3M melanoma): 215 nM
TGI (MALME-3M melanoma): 16200 nM
GI50 (MCF7 breast): 1070 nM
TGI (MCF7 breast): > 100000 nM
GI50 (MDA-MB-231 breast): 1330 nM
TGI (MDA-MB-231 breast): 86200 nM
GI50 (MDA-MB-435): 80.4 nM
TGI (MDA-MB-435): 323 nM
GI50 (MOLT-4 leukemia): 798 nM
TGI (MOLT-4 leukemia): > 100000 nM
GI50 (NCI-H226 lung): 2550 nM
TGI (NCI-H226 lung): > 66000 nM
GI50 (NCI-H23 lung): 1160 nM
TGI (NCI-H23 lung): > 100000 nM
GI50 (NCI-H460 lung): 370 nM
TGI (NCI-H460 lung): > 42200 nM
GI50 (NCI-H522 lung): 211 nM
TGI (NCI-H522 lung): 2010 nM
GI50 (NCI/ADR-RES ovarian): 280 nM
TGI (NCI/ADR-RES ovarian): 12400 nM
GI50 (OVCAR-3 ovarian): 297 nM
TGI (OVCAR-3 ovarian): 3000 nM
GI50 (OVCAR-4 ovarian): 2890 nM
TGI (OVCAR-4 ovarian): > 100000 nM
GI50 (OVCAR-5 ovarian): 8880 nM
TGI (OVCAR-5 ovarian): > 100000 nM
GI50 (OVCAR-8 ovarian): 776 nM
TGI (OVCAR-8 ovarian): > 91900 nM
GI50 (PC-3 prostate): 988 nM
TGI (PC-3 prostate): > 66700 nM
GI50 (RPMI-8226 leukemia): 1840 nM
TGI (RPMI-8226 leukemia): > 100000 nM
GI50 (RXF 393 renal): 1100 nM
TGI (RXF 393 renal): 9840 nM
GI50 (SF-268 CNS): 813 nM
TGI (SF-268 CNS): > 100000 nM
GI50 (SF-295 CNS): 305 nM
TGI (SF-295 CNS): 6090 nM
GI50 (SF-539 CNS): 655 nM
TGI (SF-539 CNS): 9050 nM
GI50 (SK-MEL-2 melanoma): 498 nM
GI50 (SK-MEL-28 melanoma): 3120 nM
TGI (SK-MEL-28 melanoma): > 100000 nM
GI50 (SK-MEL-5 melanoma): 391 nM
TGI (SK-MEL-5 melanoma): 11700 nM
GI50 (SK-OV-3 ovarian): 966 nM
TGI (SK-OV-3 ovarian): 23000 nM
GI50 (SN12C renal): 1470 nM
TGI (SN12C renal): > 100000 nM
GI50 (SNB-19 CNS): 825 nM
TGI (SNB-19 CNS): > 75100 nM
GI50 (SNB-75 CNS): 542 nM
TGI (SNB-75 CNS): 4820 nM
GI50 (SR leukemia): 437 nM
TGI (SR leukemia): > 100000 nM
GI50 (SW-620 colon): 367 nM
TGI (SW-620 colon): > 72500 nM
GI50 (T-47D breast): 783 nM
TGI (T-47D breast): > 27500 nM
GI50 (TK-10 renal): 1560 nM
TGI (TK-10 renal): 18100 nM
GI50 (U251 CNS): 415 nM
TGI (U251 CNS): 16200 nM
GI50 (UACC-257 melanoma): 1650 nM
TGI (UACC-257 melanoma): > 90300 nM
GI50 (UACC-62 melanoma): 448 nM
TGI (UACC-62 melanoma): > 100000 nM
GI50 (UO-31 renal): 523 nM
TGI (UO-31 renal): > 44100 nM
